A short description of this test: Drug metabolism in pH 7.5 HEPES buffer assessed as hydrolysis after 24 hrs.

`O=C(NCc1ccc(-c2ccccc2)cc1)c1cccc(=O)n1OS(=O)(=O)c1ccccc1`: the Drug metabolism came to 100%.

Turning to `O=C(O)c1ccc(S(=O)(=O)On2c(C(=O)NCc3ccc(-c4ccccc4)cc3)cccc2=O)cc1`, the Drug metabolism was 100%.
